Ends that are not written are not given here.
Key:
[1] = test system: IgA-α1 AT complex; assay: HPLC analysis of dissociation of purified IgA-α1 AT complex in vitro; type: biochemical, human; settings: for HPLC minimum: Table 6, minimum concentration giving complex: free IgA ratio of 20%, >500 = no dissociation at highest concentration tested; for anti-complex activity (in words): summary statements after Tables 2-6
Experimental: The ability of the peptides of the invention to dissociate purified IgA-α1 AT complex in vitro was tested as described below. The anti-rheumatic drug D-penicillamine and other synthetic peptides were used as controls. […] The sample was monitored at wavelength 206 nm at a flow rate of 1 ml/minute with phosphate buffer (0.1M) pH 7.1. They represent the ability of the peptides to dissociate the IgA-α1 AT complex in vitro. In these experiments, the base-lines level comprises a complex: free IgA ratio of 14%. The minimum concentration of peptide taken to produce a positive dissociation effect is that which results in a complex: free IgA ratio at 20%. In the results tables, all the peptide values are expressed in μMoles.

[2] = test system: alternative complement (C3) pathway; assay: Inhibition of C3-activation (IgA-α1 AT complex activation of alternative complement pathway, rabbit RBC lysis); type: biochemical, human; settings: for C' minimum: Table 6, minimum concentration needed to prevent C3 activation
Experimental: Various peptides were tested for their ability to prevent the IgA-α1 AT complex from activating the alternative complement (C3) pathway. […] This method was based on the method described by Riches and Stanworth, Immunology Letters, 1980, 1, 363,366, with modification to miniaturise it thus allowing the assay to be carried out on microtitre plates. The initial observation by […] and Ishizaka (J Immunol. […] The non-immune complex IgA-α1 AT had been shown in the past to be the only known soluble complex to activate the alternative pathway complement and inhibit the lysis of the rabbit erythrocytes. This inhibition required biologically active complex. […] Positive and negative controls, serum only controls and serum plus IgA-α1 AT complex controls were included in the assay. 25 μl of a suitable dilution of IgA-α1 AT complex (see (iii) above) was added to the test wells and the plates were centrifuged at 2000 rpm for 1 minute. The plates were then incubated at 37° C. for 11/2 hours. 50 μl of a suitable serum dilution (see (a) above) was added and the plates centrifuged at 2000 rpm for 10 minute, then incubated at 37° C. for 30 minutes. 50 μl of 1% rabbit RBC was added and after a further 30 minutes of 37° C. incubation, the plates were centrifuged at 2000 rpm for 10 minutes. Supernatants were taken as previously. The mean values of each of the serum(s), serum and complex (c+s) and total haemolysis wells were calculated. The % haemolysis with respect to lysis by serum wells was calculated. The peptide was considered to have titred out when % lysis value was equal to the calculated % lysis value given by the c+s mean. The titre point for the peptide was calculated as the concentration in μM of the peptide that just gave greater lysis than the c+s mean value.

Compound | HPLC minimum [1] [µM] | C' minimum [2] [µM] | anti-complex activity (in words) [1] | HPLC % ([1]; Table 1, minimum peptide concentration giving complex: free IgA ratio of 20% (base-line 14%), 90 minutes at 37° C.) [µM] | C' ([2]; Table 1, minimum concentration of peptide needed to prevent C3 activation) [µM]
CC(C)(S)[C@@H](N)C(=O)O [D-Penicillamine] | 250 | 31 |  |  | 
CC(=O)N[C@@H](CS)C(=O)O [N-acetyl Cysteine] | 500 | 4 | relatively inactive |  | 
HGCGGGGnh2 [Peptide 168] |  |  |  | 10 | 8
N[C@@H](CCC(=O)N[C@@H](CS)C(=O)NCC(=O)O)C(=O)O [Glutathione] | 500 | 31 | relatively inactive |  | 
N[C@@H](CS)C(=O)O [Cysteine] | 250 | 16 |  |  | 
Substance P (RPKPQQFFGLM; ends and bridges not checked; UniProt P20366 58-68, looked up) [control peptide of Group 6] | > 500 | > 500 |  |  | 
